According to article PMC12333015, “Profiling the Impact of mGlu7/Elfn1 Protein Interactions on the Pharmacology of mGlu7 Allosteric Modulators” (ACS Chemical Neuroscience, 2025):
Like-named read-outs stand apart in the source and are kept apart here.

Legend:
rat mGlu7 = molecular target: T1, rat mGlu7 (Rattus norvegicus, UniProt P35400); experiment: Thallium flux assay, mGlu7/GIRK HEK293 cells cocultured with pcDNA3 vector control cells; format: cell-based; details: for baseline Resp ± SEM, pcDNA / Maximal Resp ± SEM, pcDNA / response below baseline at inactive L-AP4 concentrations / % inhibition Resp ± SEM, pcDNA: 10 μM compound; for baseline Resp ± SEM, pcDNA: average response at bottom three L-AP4 concentrations, Percent L-AP4/pcDNA/DMSO Max; for Maximal Resp ± SEM, pcDNA: average response at top two L-AP4 concentrations, normalized to L-AP4 max with pcDNA/DMSO; for response below baseline at inactive L-AP4 concentrations: observed regardless of the presence of Elfn1; for % inhibition Resp ± SEM, pcDNA: of maximal L-AP4 response; for IC50: compound concentration-response in presence of 600 μM L-AP4 (EC80), read-out: compound pIC50 ± SEM, pcDNA (converted); for compound Min Resp ± SEM, pcDNA: minimal curve fit response, 600 μM L-AP4, maximal inhibition at 30 μM compound, normalized to 600 μM L-AP4 response; for Emax: HEK293, read-out: PAM Maximal response, pcDNA; for Emax / EC50: PAM concentration-response at an EC20 concentration of L-AP4; for Fold potentiation, pcDNA: fold potentiation of an EC20 concentration of L-AP4
T1 construct: expressed in transfected cells; host or cells: HEK293A cells stably expressing mGlu7 and GIRK1/2
T1 sequence (P35400 35-915): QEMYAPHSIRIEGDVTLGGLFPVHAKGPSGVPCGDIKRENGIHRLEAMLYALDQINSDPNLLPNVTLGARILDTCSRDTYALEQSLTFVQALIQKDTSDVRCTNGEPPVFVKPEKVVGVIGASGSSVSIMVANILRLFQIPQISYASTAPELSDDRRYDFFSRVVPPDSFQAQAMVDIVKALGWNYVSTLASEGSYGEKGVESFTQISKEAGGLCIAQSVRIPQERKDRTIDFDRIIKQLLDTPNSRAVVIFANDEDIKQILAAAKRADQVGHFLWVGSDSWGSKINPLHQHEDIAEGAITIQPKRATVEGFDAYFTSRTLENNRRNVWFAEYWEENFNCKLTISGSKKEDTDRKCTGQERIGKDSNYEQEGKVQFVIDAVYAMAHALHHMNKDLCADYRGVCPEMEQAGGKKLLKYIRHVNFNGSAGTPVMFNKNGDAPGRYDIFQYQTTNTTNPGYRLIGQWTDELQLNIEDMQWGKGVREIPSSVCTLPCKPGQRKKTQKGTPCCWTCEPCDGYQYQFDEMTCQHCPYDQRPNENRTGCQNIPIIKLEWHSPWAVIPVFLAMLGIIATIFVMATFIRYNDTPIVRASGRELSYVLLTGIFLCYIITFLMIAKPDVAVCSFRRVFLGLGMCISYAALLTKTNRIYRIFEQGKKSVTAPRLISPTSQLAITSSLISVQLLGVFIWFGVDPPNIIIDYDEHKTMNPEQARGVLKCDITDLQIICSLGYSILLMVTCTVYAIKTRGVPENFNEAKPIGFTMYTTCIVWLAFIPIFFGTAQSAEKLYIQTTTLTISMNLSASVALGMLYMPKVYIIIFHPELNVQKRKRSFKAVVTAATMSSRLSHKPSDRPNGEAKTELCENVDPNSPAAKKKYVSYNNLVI
Excerpt: (§1) We began our evaluation of mGlu7 ligands in the presence and absence of Elfn1 by using a coculture system as previously described , with several modifications (Figure ). Cells expressing rat mGlu7 and coexpressing G protein inwardly rectifying potassium (GIRK) channels 1 and 2 were cocultured with cells expressing either an empty pcDNA3 vector control or a plasmid containing Elfn1 in the pcDNA3 backbone. We then evaluated the activity of the orthosteric agonist L-AP4 and measured effects on maximal response and pEC50. All responses were normalized to the maximal effect of L-AP4 in the presence of the pcDNA3 control plasmid.
(§2) 2 Assay design and workflow. (Left panel) Cells expressing rat mGlu7/GIRK (pink) were cocultured with pcDNA3 (blue) or Elfn1 (purple). […] (Right panel) The effect on the concentration–response curve in the presence (purple) or absence (blue) of Elfn1 can be seen by a change in efficacy, potency, and/or basal response.
(§3) HEK293A cells stably expressing mouse Elfn1 or pcDNA3 were maintained in growth medium containing 90% Dulbecco’s Modified Eagle Media (DMEM), 10% fetal bovine serum (FBS), 100 units/mL penicillin/streptomycin, 20 mM HEPES, 1 mM sodium pyruvate, 2 mM L-glutamine, 1× nonessential amino acids, and 700 μg/mL G418 sulfate. HEK mGlu7/GIRK cells were maintained in a growth medium with 90% DMEM/F12, 10% dialyzed FBS, 100 units/mL penicillin/streptomycin, 20 mM HEPES, 1 mM sodium pyruvate, 2 mM L-glutamine, 1× nonessential amino acids, 700 μg/mL G418 sulfate, and 600 ng/mL puromycin. All cell culture reagents were purchased from Invitrogen (Carlsbad, CA).
(§4) Thallium flux assays were performed as previously described. A mixture of HEK293A mGlu7/GIRK cells and pcDNA3 or Elfn1-expressing HEK293A cells (5000/15,000 cells/20 μL/well for agonist and PAM experiments; 7500/15,000 cells/20 μL/well for NAM experiments) was seeded in 384-well, amine-coated assay plates (Greiner Bio-One, Monroe, NC). Cells were incubated overnight in a humidified 5% CO2 cell culture incubator at 37 °C. […] Following a 1 h incubation at room temperature, the dye loading solution was replaced with 20 μL/well assay buffer and the plates were loaded into a Hamamatsu FDSS 7000 (Bridgewater, NJ). […] Thallium flux data were analyzed by first dividing each point in each wave by the first point in that wave and then subtracting the average of the vehicle control response. The slopes of these vehicle control-subtracted waves were calculated over ten data points beginning 2 s after thallium stimulus addition and fit to a three-parameter logistic equation in GraphPad Prism (La Jolla, CA). In most cases, the final data were normalized to the response of the mGlu7/pcDNA3 with vehicle and 5 mM L-AP4 unless otherwise noted. Potency (pEC50) and maximum responses (E max) induced by compounds were determined using a four-parameter logistical equation in Prism. Basal activity was calculated with data points at the three lowest test concentrations. Maximum activity was calculated with data points at two highest concentrations. All experiments were replicated at least three times in duplicate or triplicate.

mGlu7/Elfn1 = molecular target: T2, mGlu7/Elfn1 (Rattus norvegicus, UniProt P35400); experiment: Thallium flux assay, mGlu7/GIRK HEK293 cells cocultured with Elfn1-expressing cells; format: cell-based, mouse Elfn1; details: for baseline Resp ± SEM, Elfn1 / Maximal Resp ± SEM, Elfn1 / % inhibition Resp ± SEM, Elfn1: 10 μM compound; for baseline Resp ± SEM, Elfn1: average response at bottom three L-AP4 concentrations, Percent L-AP4/pcDNA/DMSO Max; for Maximal Resp ± SEM, Elfn1: average response at top two L-AP4 concentrations, normalized to L-AP4 max with pcDNA/DMSO; for % inhibition Resp ± SEM, Elfn1: of maximal L-AP4 response; for IC50: compound concentration-response in presence of 600 μM L-AP4 (EC80), read-out: compound pIC50 ± SEM, Elfn1 (converted); for compound Min Resp ± SEM, Elfn1: minimal curve fit response, 600 μM L-AP4, maximal inhibition at 30 μM compound, normalized to account for lower agonist max with Elfn1; for Emax: HEK293, read-out: PAM Maximal response, Elfn1; for Fold potentiation, Elfn1: fold potentiation of an EC20 concentration of L-AP4
T2 construct: expressed in transfected cells; host or cells: HEK293A mGlu7/GIRK cells cocultured with HEK293A polyclonal cells stably expressing Elfn1-Myc (pcDNA3)
T2 sequence (P35400 35-915): as above
T2 sequence (Q8C8T7 26-828 partner): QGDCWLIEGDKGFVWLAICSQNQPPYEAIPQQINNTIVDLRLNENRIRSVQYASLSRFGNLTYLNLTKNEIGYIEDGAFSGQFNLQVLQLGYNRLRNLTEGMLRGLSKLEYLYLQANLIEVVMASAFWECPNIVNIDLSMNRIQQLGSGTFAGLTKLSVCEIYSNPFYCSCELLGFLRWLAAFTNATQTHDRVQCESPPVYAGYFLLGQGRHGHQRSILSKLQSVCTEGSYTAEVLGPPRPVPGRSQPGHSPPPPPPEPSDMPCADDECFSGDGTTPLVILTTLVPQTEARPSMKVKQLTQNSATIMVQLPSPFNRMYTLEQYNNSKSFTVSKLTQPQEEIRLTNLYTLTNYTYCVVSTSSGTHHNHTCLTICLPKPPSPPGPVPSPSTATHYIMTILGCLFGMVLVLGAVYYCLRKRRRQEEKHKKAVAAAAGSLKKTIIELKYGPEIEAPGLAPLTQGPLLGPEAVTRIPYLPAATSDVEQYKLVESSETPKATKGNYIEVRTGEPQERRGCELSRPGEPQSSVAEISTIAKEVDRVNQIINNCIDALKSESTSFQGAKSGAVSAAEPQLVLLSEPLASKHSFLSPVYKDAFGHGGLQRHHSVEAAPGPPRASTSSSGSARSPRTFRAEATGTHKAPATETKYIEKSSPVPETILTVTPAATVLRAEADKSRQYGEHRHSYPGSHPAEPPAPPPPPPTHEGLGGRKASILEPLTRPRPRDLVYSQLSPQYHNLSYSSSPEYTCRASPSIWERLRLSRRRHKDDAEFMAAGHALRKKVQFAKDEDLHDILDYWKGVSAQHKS
Excerpt: as §1, §2
HEK293A polyclonal cells stably expressing either Elfn1 or empty vector were passaged in media (Dulbecco’s modified Eagle medium (DMEM), supplemented with 10% fetal bovine serum (FBS), 20 mM N-(2-hydroxyethyl)-piperazine-N′-ethanesulfonic acid (HEPES), 1 mM Na pyruvate, 2 mM Glutamax, 0.1 mM nonessential amino acids, 1× antibiotic/antimycotic) under G418 (700 μg/mL) selection to maintain expression.
as §3
as §4, with “NJ). Data were acquired at 1 Hz (excitation 470 ± 20 nm, emission 540 ± 30 nm) for 10 s, followed by the addition of 20 μL/well of 10 μM NAM/PAM/DMSO, followed by an additional 4 min of data collection.” for “NJ).”, “Prism.” for “Prism. Basal activity was calculated with data points at the three lowest test concentrations. Maximum activity was calculated with data points at two highest concentrations. All experiments were replicated at least three times in duplicate or triplicate.”

[1] = 10 μM NAM, three lowest L-AP4 concentrations, normalized to mGlu7/pcDNA3 vehicle L-AP4 max
[2] = 10 μM PAM, L-AP4 CRC, normalized to percent L-AP4 response with pcDNA and DMSO
[3] = PAM concentration-response at an EC20 concentration of L-AP4

## O=c1c(Oc2ccc(I)cc2)coc2cc(O)ccc12 [XAP044, reference compound]
Rat mGlu7
  baseline Resp ± SEM, pcDNA: –11.4 ± 4.8 %
  Maximal Resp ± SEM, pcDNA: 1.7 ± 3.6 %
  response below baseline at inactive L-AP4 concentrations: inverse agonist activity
  % inhibition Resp ± SEM, pcDNA: 1.6 ± 3.5%
  IC50: 1660 nM
  compound Min Resp ± SEM, pcDNA: 6.9 ± 6.5
mGlu7/Elfn1
  baseline Resp ± SEM, Elfn1: –6.5 ± 1.3 %
  Maximal Resp ± SEM, Elfn1: –13.2 ± 1.7 %
  % inhibition Resp ± SEM, Elfn1: –30.4 ± 2.9 %
  IC50: 380 nM
  compound Min Resp ± SEM, Elfn1: 2.5 ± 8.4

## CCCOc1ccc(C(=O)Nc2cc(OC(F)(F)F)ccc2-n2cncn2)cc1OC [VU6010953]
Rat mGlu7; [1]
  baseline response ± SEM, pcDNA: –12.5 ± 2.2
mGlu7/Elfn1; [1]
  baseline response ± SEM, Elfn1: –8.1 ± 1.1

## COc1cc(C(=O)Nc2cc(OC(F)(F)F)ccc2-n2cncn2)ccc1OCC1CC1 [VU6012962, N-(2-(1 H-1,2,4-triazol-1-yl)-5-(trifluoromethoxy)phenyl)-4-(cyclopropylmethoxy)-3-methox ybenzamide]
Rat mGlu7; [1]
  baseline response ± SEM, pcDNA: –19.1 ± 2.4
mGlu7/Elfn1; [1]
  baseline response ± SEM, Elfn1: –8.1 ± 2.0

## COc1ccc(-c2cnc(-c3cc(OC(F)(F)F)ccc3-n3cncn3)o2)cc1OC [VU6018226]
Rat mGlu7; [1]
  baseline response ± SEM, pcDNA: –6.6 ± 1.8
mGlu7/Elfn1; [1]
  baseline response ± SEM, Elfn1: 0.2 ± 3.5

## CCc1nc2c(o1)CC(c1ccc(C)cc1C)CC2=O (centres unmarked) [ADX71743, reference compound]
Rat mGlu7
  baseline Resp ± SEM, pcDNA: –21.5 ± 2.0 %
  Maximal Resp ± SEM, pcDNA: –0.08 ± 1.4 %
  response below baseline at inactive L-AP4 concentrations: inverse agonist activity
  % inhibition Resp ± SEM, pcDNA: –0.11 ± 1.4%
  IC50: 195 nM
  compound Min Resp ± SEM, pcDNA: –32.9 ± 8.0
mGlu7/Elfn1
  baseline Resp ± SEM, Elfn1: –12.7 ± 2.9 %
  Maximal Resp ± SEM, Elfn1: –10.1 ± 1.7 %
  % inhibition Resp ± SEM, Elfn1: –22.4 ± 3.4 %
  IC50: 141 nM
  compound Min Resp ± SEM, Elfn1: –28.5 ± 5.5

## COC(=O)c1ccc(-n2c(C)cc(C(=O)CSc3ccc(NC(C)=O)cc3)c2C)cc1 [VU0155094]
Rat mGlu7; [2]
  baseline response ± SEM, pcDNA: 6.4±2.3%
Rat mGlu7
  Emax: 138 ± 5.2%
  Fold potentiation, pcDNA: 4.4±0.3 fold
Rat mGlu7; read-out: PAM pEC50, pcDNA (converted)
  EC50: 3550 nM
mGlu7/Elfn1; [2]
  baseline response ± SEM, Elfn1: 1.0±1.7%
mGlu7/Elfn1; [3]
  Emax: 66.3 ± 3.6%
mGlu7/Elfn1; PAM concentration-response at an EC20 concentration of L-AP4, read-out: PAM pEC50, Elfn1 (converted)
  EC50: 2820 nM
mGlu7/Elfn1
  Fold potentiation, Elfn1: 2.7±0.2 fold

## COc1ccc(C(=O)Nc2cc(OC(F)(F)F)ccc2-n2cncn2)cc1OC [VU6010608]
Rat mGlu7; [1]
  baseline response ± SEM, pcDNA: –14.5 ± 2.6
mGlu7/Elfn1; [1]
  baseline response ± SEM, Elfn1: –9.0 ± 0.9

## COc1ccc(-c2noc(-c3cc(Cl)ccc3-n3cncn3)n2)cc1OC [VU6017743]
Rat mGlu7; [1]
  baseline response ± SEM, pcDNA: –11.5 ± 4.7
mGlu7/Elfn1; [1]
  baseline response ± SEM, Elfn1: –5.7 ± 5.9

## COc1ccc(-c2nnc(-c3cc(OC(F)(F)F)ccc3-c3cn[nH]c3)o2)cc1OC [VU6019282]
Rat mGlu7; [1]
  baseline response ± SEM, pcDNA: –5.3 ± 3.7
mGlu7/Elfn1; [1]
  baseline response ± SEM, Elfn1: –0.7 ± 4.5

## COc1cc(F)cc2c(N3CCN(c4ccccc4F)CC3)c(C#N)cnc12 [VU6027459]
Rat mGlu7; [2]
  baseline response ± SEM, pcDNA: 25.6±12.0%
Rat mGlu7
  Emax: 75.8 ± 5.2%
  Fold potentiation, pcDNA: 3.0±0.4 fold
Rat mGlu7; PAM pEC50, pcDNA
  EC50: 1000 nM
mGlu7/Elfn1; [2]
  baseline response ± SEM, Elfn1: 12.5±8.4%
mGlu7/Elfn1; [3]
  Emax: 44.1 ± 4.5%
mGlu7/Elfn1; PAM pEC50, Elfn1, PAM concentration-response at an EC20 concentration of L-AP4
  EC50: 1620 nM
mGlu7/Elfn1
  Fold potentiation, Elfn1: 2.0±0.2 fold
